The results in this text go back to USRE34918E, “Azaazulene compounds which are useful as antiallergic and antiinflammatory agents” (Kaken Pharmaceutical Co., Ltd., priority 1988, dated 1995).

SMILES strings stand for the structures. Values joined by “and” are separate entries in the source; they are usually repeats but may differ in a detail not shown here. Identical values can stand only once.

Experiment [1] concerns histamine release from rat mast cell. The experiment is described as follows: Inhibitory activity against histamine release from rat mast cell. Format: cell-based. The conditions noted are these: 10 μg/ml, read-out: Inhibitory rate against histamine release.
For experiment [2], the system named is carrageenin edema in a foot-pad of rat. The experiment is described as follows: Effect on carrageenin edema in a foot-pad of rat. The class given is in vivo, rat (male Wister). Particulars: 50 mg/kg p.o., 4 hours after carrageenin. As for the experimental part:
The test was carried out according to the modified method on a method of Winter et al [Proc. Soc. Exp. Biol Med., 111, 544-547 (1962)]. Five male Wister rats weighing 148 to 162 g which were subjected to fasting for 24 hours were used as one group.
The test compound was suspended in 0.5% aqueous solution of CMC, and the suspension was administered orally in a amount of 50 mg/kg. After 60 minutes, 0.1 ml of 1% carrageenin solution in physiological saline was injected subcutaneously into the foot-pad of the left hind foot. Four hours after the injection of carrageenin, the volume of the foot-pad was measured by the apparatus for measurement of foot-pad volume in rat (commercially available from Ugobasile).
Swelling volume was calculated from the difference between a volume of foot-pad before inflaming the foot-pad, i.e. normal volume and that after inflaming it. Effect of a test compound was expressed as inhibition rate against swelling by calculating percentage in comparison with the 0.5% CMC administration group.
Indomethacin (commercially available from Merck Co.) was used as a positive comparative drug.
(Carrageenan injected into the paw causes an acute inflammation.)

With `CC(C)c1cccc2n(Cc3ccc(F)cc3)c(=O)c(-c3nnn[nH]3)c-2c1` [Example 9, 1-(4-Fluorobenzyl)-5-iso-propyl-3-(5-tetrazolyl)-1-azaazulane-2-one], the inhibition at 10 µg/mL in experiment [1] was 99.8%. Moreover, the “Swelling volume 4 hours after inflaming, mean ± standard error” value in experiment [2] is 0.55 mL and 0.55 ± 0.032 mL. Also, the “Inhibition rate against swelling” value in experiment [2] (vs 0.5% CMC group) came out at 38.9%.
